# Results reported in patent US10183944B2 (Asana Biosciences, LLC, priority 2011, dated 2019).
# Molecular target: Syk (356-635 amino acids) catalytic domain (Homo sapiens (Human), UniProt P43405)
# Assay: Inhibition of enzymatic Syk kinase activity (radiometric)
# Type: biochemical
# Details: read-out: IC50 Syk
# From the text: The objective of this assay was to examine by radiometric method the ability of compounds to inhibit Syk kinase enzyme. Syk is capable of phosphorylating substrates such as VAV, LAT, SLP-76, which in turn activate MAPK, PLCγ signaling pathways. […] This in vitro assay tests the ability of syk to phosphorylate a substrate peptide in the presence of ATP. By using a radio-labeled form of ATP, it is possible to measure the amount of phosphorylation of the substrate. The enzyme transfers a radio-labeled phosphate group from γ32 P labeled ATP to pG4T. Briefly the enzyme was incubated with substrate, radio-labeled & cold ATP and substrate in buffer with or without compounds. At the end of the reaction, the reaction mixture was transferred on to a Multiscreen filter plate and unreacted γ^32P ATP was washed off. The filter plate was dried and the radioactivity was measured on a scintillation counter to estimate the incorporated radioactivity on the substrate. The percent inhibition of activity of the enzyme was calculated by comparing counts in the presence and absence of compounds. […] 2.5 μL of 10% DMSO or compound in 10% DMSO was added to the wells in a 96 well V-bottom plate. Optimized concentration of in-house Syk enzyme (different batches of Syk (356-635) kinase domain) were used at optimized concentrations) ranging from 0.035 ng to 7.5 ng/reaction diluted in assay buffer was added to a total volume of 12.5 μL). Compound and protein were incubated for 30 minutes at room temperature on a plate shaker. Ten μL of a substrate mix containing 100 μM ATP (0.25 μL), γ-P^32-ATP (0.1 μL; 10 μCi/μL), pG4T (0.25 μL; 10 mg/mL) and 1× assay buffer (9.4 μL) was added to all the wells. Samples were incubated at 30° C. for 10 minutes after mixing. The reaction was stopped by the addition of 8N HCl (13 μL) containing 100 mM ATP. Thirty μL of sample was transferred to the center of a 2×2 cm^2 Whatman® P81 chromatography paper. After allowing the sample to dry for one minute, the assay squares were washed 3 times for 5 minutes each in ortho-phosphoric acid (0.5%) and once in acetone. Assay squares were dried for 15 minutes in a 30° C. oven and transferred to 96 well optiplate. Microscint-O® reagent (100 μL, Perkin Elmer) was added to each well, the plate was sealed with Topseal®-A microplates and incubated for 10 minutes at room temperature at very low speed on rocker and the plate was read in the Topcount® NXL instrument. The following calculations were made: Fold induction=radioactivity counts (uncorrected values) in positive control/substrate control.
row,Structure (SMILES),IC50
1,"O=C(O)C1CC12CCN(c1ccc(Nc3nc(N4CCOCC4)nc4cn[nH]c(=O)c34)cc1)CC2 (centres unmarked) [Example 42, 6-(4-((2-morpholino-5-oxo-5,6-dihydropyrimido[4,5-d]pyridazin-4-yl)amino)phenyl)-6-azaspiro[2.5]octane-1-carboxylic acid]",< 100 nM
2,"O=c1[nH]ncc2nc(N3CCCCCC3)nc(Nc3ccc4c(c3)OCO4)c12 [Example 327, 2-(azepan-1-yl)-4-(benzo[d][1,3]dioxol-5-ylamino)pyrimido[4,5-d]pyridazin-5(6H)-one]",> 100 nM
3,"CCn1nnc(-c2ccc(Nc3nc(N4CCCCCC4)nc4cn[nH]c(=O)c34)cc2)n1 [Example 225, 2-(azepan-1-yl)-4-((4-(2-ethyl-2H-tetrazol-5-yl)phenyl)amino)pyrimido[4,5-d]pyridazin-5(6H)-one]",> 100 nM
4,"O=c1[nH]ncc2nc(N3CCCCCC3)nc(Nc3ccc(OCCCO)cc3)c12 [Example 296, 2-(azepan-1-yl)-4-((4-(3-hydroxypropoxy)phenyl)amino)pyrimido[4,5-d]pyridazin-5(6H)-one]",< 100 nM
5,"O=c1[nH]ncc2nc(N3CCCCCC3)nc(Nc3ccc(N4CCC(CCCO)CC4)cc3)c12 [Example 194, 2-(azepan-1-yl)-4-((4-(4-(3-hydroxypropyl)piperidin-1-yl)phenyl)amino)pyrimido[4,5-d]pyridazin-5(6H)-one]",> 100 nM
6,"O=c1[nH]ncc2nc(N3CCCCCC3)nc(Nc3ccc(N4CCC(CCF)CC4)cc3)c12 [Example 298, 2-(azepan-1-yl)-4-((4-(4-(2-fluoroethyl)piperidin-1-yl)phenyl)amino) pyrimido[4,5-d]pyridazin-5-(6H)-one]",> 100 nM
7,"COc1ccc(Nc2nc(N3CCC(CC#N)CC3)nc3cn[nH]c(=O)c23)cc1OC [Example 319, 2-(1-(4-((3,4-dimethoxyphenyl)amino)-5-oxo-5,6-dihydropyrimido[4,5-d]pyridazin-2-yl)piperidin-4-yl)acetonitrile]",> 100 nM
8,"N#CCC1CCN(c2nc(Nc3ccc(CO)cc3)c3c(=O)[nH]ncc3n2)CC1 [Example 332, 2-(1-(4-((4-(hydroxymethyl)phenyl)amino)-5-oxo-5,6-dihydropyrimido[4,5-d]pyridazin-2-yl)piperidin-4-yl) acetonitrile]",< 100 nM
9,"N#CC1CCN(c2nc(Nc3ccc(OCCN4CCNCC4)cc3)c3c(=O)[nH]ncc3n2)CC1 [Example 149, 1-(5-oxo-4-((4-(2-(piperazin-1-yl)ethoxy)phenyl)amino)-5,6-dihydropyrimido[4,5-d]pyridazin-2-yl)piperidine-4-carbonitrile]",> 100 nM
10,"O=C(O)C1CC12CCN(Cc1ccc(Nc3nc(-c4ccccc4)nc4cn[nH]c(=O)c34)cc1)CC2 (centres unmarked) [Example 21, 6-(4-(5-oxo-2-phenyl-5,6-dihydropyrimido[4,5-d]pyridazin-4-ylamino)benzyl)-6-azaspiro[2.5]octane-1-carboxylic acid]",> 100 nM
11,"COc1ccc(Nc2nc(N3CCCCCC3)nc3cn[nH]c(=O)c23)cc1OC [Example 318, 2-(azepan-1-yl)-4-((3,4-dimethoxyphenyl)amino)pyrimido[4,5-d]pyridazin-5(6H)-one]",> 100 nM
12,"O=c1[nH]ncc2nc(N3CCOCC3)nc(Nc3ccc(OCCN4CCNCC4)cc3)c12 [Example 176, 2-morpholino-4-((4-(2-(piperazin-1-yl)ethoxy)phenyl)amino)pyrimido[4,5-d]pyridazin-5(6H)-one]",> 100 nM
13,"O=C(O)CC1CCN(c2ccc(Nc3nc(C4CCCCCC4)nc4cn[nH]c(=O)c34)cc2)CC1 [Example 90, 2-(1-(4-((2-cycloheptyl-5-oxo-5,6-dihydropyrimido[4,5-d]pyridazin-4-yl)amino)phenyl)piperidin-4-yl)acetic acid]",< 100 nM
14,"CC(C)(C#N)C1CCN(c2ccc(Nc3nc(-c4ccccc4)nc4cn[nH]c(=O)c34)cc2)CC1 [Example 119, 2-methyl-2-(1-(4-((5-oxo-2-phenyl-5,6-dihydropyrimido[4,5-d]pyridazin-4-yl)amino)phenyl)piperidin-4-yl) propanenitrile]",> 100 nM
15,"CN(C)CCN(C)C(=O)c1ccc(Nc2nc(-c3ccccc3)nc3cn[nH]c(=O)c23)cc1 [Example 15, N-(2-(dimethylamino)ethyl)-N-methyl-4-(5-oxo-2-phenyl-5,6-dihydropyrimido[4,5-d]pyridazin-4-ylamino)benzamide]",> 100 nM
16,"COc1cc(Nc2nc(N3CCC(CC#N)CC3)nc3cn[nH]c(=O)c23)cc(OC)c1OC [Example 326, 2-(1-(5-oxo-4-((3,4,5-trimethoxyphenyl)amino)-5,6-dihydropyrimido[4,5-d]pyridazin-2-yl)piperidin-4-yl) acetonitrile]",> 100 nM

# Results, then the compound that gave them:
row,IC50,Structure (SMILES)
1,> 100 nM,"N#CCC1CCN(c2nc(Nc3ccc(OC(F)(F)F)cc3)c3c(=O)[nH]ncc3n2)CC1 [Example 301, 2-(1-(5-oxo-4-((4-(trifluoromethoxy)phenyl)amino)-5,6-dihydropyrimido[4,5-d]pyridazin-2-yl)piperidin-4-yl) acetonitrile]"
2,> 100 nM,"CN1CCN(CCn2cc(Nc3nc(-c4ccccc4)nc4cn[nH]c(=O)c34)cn2)CC1 [Example 64, 4-((1-(2-(4-methylpiperazin-1-yl)ethyl)-1H-pyrazol-4-yl)amino)-2-phenylpyrimido[4,5-d]pyridazin-5(6H)-one]"
3,> 100 nM,"O=c1[nH]ncc2nc(-c3ccccc3)nc(Nc3ccc(N4CCC5(CC4)COC5)cc3)c12 [Example 17, 4-(4-(2-oxa-7-azaspiro[3.5]nonan-7-yl)phenylamino)-2-phenylpyrimido[4,5-d]pyridazin-5(6H)-one]"
4,> 100 nM,"COc1cccc(Nc2nc(N3CCC(CC#N)CC3)nc3cn[nH]c(=O)c23)c1 [Example 321, 2-(1-(4-((3-methoxyphenyl)amino)-5-oxo-5,6-dihydropyrimido[4,5-d]pyridazin-2-yl)piperidin-4-yl)acetonitrile]"
5,> 100 nM,"O=C(c1ccc(Nc2nc(-c3ccccc3)nc3cn[nH]c(=O)c23)cc1)N1CCOCC1 [Example 9, 4-(4-(morpholine-4-carbonyl)phenylamino)-2-phenylpyrimido[4,5-d]pyridazin-5(6H)-one]"
6,> 100 nM,"O=c1[nH]ncc2nc(-c3ccccc3)nc(Nc3cnn(CCN4CCOCC4)c3)c12 [Example 58, 4-((1-(2-morpholinoethyl)-1H-pyrazol-4-yl)amino)-2-phenylpyrimido[4,5-d]pyridazin-5(6H)-one]"
7,< 100 nM,"N#CCC1CCN(c2nc(Nc3ccc(CN4CCC(C(=O)O)CC4)cc3)c3c(=O)[nH]ncc3n2)CC1 [Example 78, 1-(4-((2-(4-(cyanomethyl)piperidin-1-yl)-5-oxo-5,6-dihydropyrimido[4,5-d]pyridazin-4-yl)amino)benzyl)piperidine-4-carboxylic acid]"
8,> 100 nM,"CS(=O)(=O)c1ccc(Nc2nc(N3CCC(CC#N)CC3)nc3cn[nH]c(=O)c23)cc1 [Example 333, 2-(1-(4-((4-(methylsulfonyl)phenyl)amino)-5-oxo-5,6-dihydropyrimido[4,5-d]pyridazin-2-yl)piperidin-4-yl) acetonitrile]"
9,> 100 nM,"O=c1[nH]ncc2nc(N3CCCCCC3)nc(Nc3ccc(OC(F)(F)F)cc3)c12 [Example 303, 2-(azepan-1-yl)-4-((4-(trifluoromethoxy)phenyl)amino)pyrimido[4,5-d]pyridazin-5(6H)-one]"
10,> 100 nM,"CC(C)(Oc1ccc(Nc2nc(N3CCC(CC#N)CC3)nc3cn[nH]c(=O)c23)cc1)C(=O)O [Example 317, 2-(4-((2-(4-(cyanomethyl)piperidin-1-yl)-5-oxo-5,6-dihydropyrimido[4,5-d]pyridazin-4-yl)amino)phenoxy)-2-methylpropanoic acid]"
11,> 100 nM,"O=C1CC2(CCN(c3ccc(Nc4nc(-c5ccccc5)nc5cn[nH]c(=O)c45)cc3)CC2)N1 [Example 16, 4-(4-(2-oxo-1,7-diazaspiro[3.5]nonan-7-yl)phenylamino)-2-phenylpyrimido[4,5-d]pyridazin-5(6H)-one]"
12,> 100 nM,"COc1cc(Nc2nc(N3CCC(CC#N)CC3)nc3cn[nH]c(=O)c23)cc(OC)c1 [Example 300, 2-(1-(4-((3,5-dimethoxyphenyl)amino)-5-oxo-5,6-dihydropyrimido[4,5-d]pyridazin-2-yl)piperidin-4-yl)acetonitrile]"
13,> 100 nM,"O=C(O)C1CC12CCN(c1ccc(Nc3nc(-c4ccccc4)nc4cn[nH]c(=O)c34)cn1)CC2 (centres unmarked) [Example 137, 6-(5-((5-oxo-2-phenyl-5,6-dihydropyrimido[4,5-d]pyridazin-4-yl)amino)pyridin-2-yl)-6-azaspiro[2.5]octane-1-carboxylic acid]"
